According to patent publication US20140088103A1, “(FUSED RING ARYLAMINO AND HETEROCYCLYLAMINO) PYRIMIDINYL AND 1,3,5-TRIAZINYL BENZIMIDAZOLES, PHARMACEUTICAL COMPOSITIONS THEREOF, AND THEIR USE IN TREATING PROLIFERATIVE DISEASES” (MEI PHARMA, INC., priority 2011, published 2014):

How the values were obtained:
PI3K delta (p110δ) = molecular target: T1, PI3K delta (p110δ) (Homo sapiens, UniProt O00329); assay: Luciferase-based luminescence assay (Kinase GLO), PI3K delta; format: biochemical; settings: for IC50: 6.86 nM enzyme, 50 μM PIP2, 25 μM ATP, 2 hours reaction; for α/δ ratio: ratio of IC50 against PI3Kα over IC50 against PI3Kδ
T1 construct: purchased Millipore, Billerica, Mass., USA
Protocol: (§1) PI3K catalyzes the conversion of phosphatidylinositol-4,5-bisphosphate (PIP2) and ATP to phosphatidylinositol-3,4,5-trisphosphate (PIP3) and ADP. PI3K enzymatic activity was determined by measuring the amount of ATP consumed following the kinase reaction using a luciferase-based luminescence assay (Kinase GLO®, Promega Corp., Madison, Wis., USA) in a reaction buffer. The reaction buffer contained 50 mM HEPES, pH 7.5, 3 mM MgCl2, 1 mM EGTA, 100 mM NaCl, 0.03% CHAPS, and 2 mM DTT. Compounds for testing were dissolved and serially diluted in 100% DMSO (total of 10 concentrations), and then diluted 1:25 in the reaction buffer. PI3K enzyme solutions were prepared by diluting PI3K alpha (Invitrogen Corp., Carlsbad, Calif., USA) or PI3K delta (Millipore, Billerica, Mass., USA) in the reaction buffer to 4× the final assay concentration. The final concentrations of enzymes were 1.65 nM and 6.86 nM for PI3K alpha and PI3K delta, respectively. A substrate solution was prepared by mixing PIP2 and ATP in reaction buffer at 2× the final assay concentration. The final concentrations were 50 μM and 25 μM for PIP2 and ATP, respectively. To individual wells of white low volume 384-well assay plates were added 2.5 μl each of the compound and kinase mixtures, followed by shaking. The reactions were started by adding 5 μl of substrate mixture per well and shaking. The assay plates were covered and reactions were allowed to proceed for 1 hour (PI3K alpha) or 2 hours (PI3K delta), after which 10 μl of Kinase GLO® reagent was added. The plates were briefly centrifuged and incubated for 10 minutes, after which luminescence was measured using a FlexStation plate reader (Molecular Devices, Sunnyvale, Calif., USA). IC50 values were determined by curve fitting using Graphpad Prism software (Graphpad Software, La Jolla, Calif., USA).

PI3K alpha (p110α) = molecular target: T2, PI3K alpha (p110α) (Homo sapiens, UniProt P42336); assay: Luciferase-based luminescence assay (Kinase GLO), PI3K alpha; format: biochemical; settings: 1.65 nM enzyme, 50 μM PIP2, 25 μM ATP, 1 hour reaction
T2 construct: purchased Invitrogen Corp., Carlsbad, Calif., USA
Protocol: as §1

T1 sequence (O00329 whole entry): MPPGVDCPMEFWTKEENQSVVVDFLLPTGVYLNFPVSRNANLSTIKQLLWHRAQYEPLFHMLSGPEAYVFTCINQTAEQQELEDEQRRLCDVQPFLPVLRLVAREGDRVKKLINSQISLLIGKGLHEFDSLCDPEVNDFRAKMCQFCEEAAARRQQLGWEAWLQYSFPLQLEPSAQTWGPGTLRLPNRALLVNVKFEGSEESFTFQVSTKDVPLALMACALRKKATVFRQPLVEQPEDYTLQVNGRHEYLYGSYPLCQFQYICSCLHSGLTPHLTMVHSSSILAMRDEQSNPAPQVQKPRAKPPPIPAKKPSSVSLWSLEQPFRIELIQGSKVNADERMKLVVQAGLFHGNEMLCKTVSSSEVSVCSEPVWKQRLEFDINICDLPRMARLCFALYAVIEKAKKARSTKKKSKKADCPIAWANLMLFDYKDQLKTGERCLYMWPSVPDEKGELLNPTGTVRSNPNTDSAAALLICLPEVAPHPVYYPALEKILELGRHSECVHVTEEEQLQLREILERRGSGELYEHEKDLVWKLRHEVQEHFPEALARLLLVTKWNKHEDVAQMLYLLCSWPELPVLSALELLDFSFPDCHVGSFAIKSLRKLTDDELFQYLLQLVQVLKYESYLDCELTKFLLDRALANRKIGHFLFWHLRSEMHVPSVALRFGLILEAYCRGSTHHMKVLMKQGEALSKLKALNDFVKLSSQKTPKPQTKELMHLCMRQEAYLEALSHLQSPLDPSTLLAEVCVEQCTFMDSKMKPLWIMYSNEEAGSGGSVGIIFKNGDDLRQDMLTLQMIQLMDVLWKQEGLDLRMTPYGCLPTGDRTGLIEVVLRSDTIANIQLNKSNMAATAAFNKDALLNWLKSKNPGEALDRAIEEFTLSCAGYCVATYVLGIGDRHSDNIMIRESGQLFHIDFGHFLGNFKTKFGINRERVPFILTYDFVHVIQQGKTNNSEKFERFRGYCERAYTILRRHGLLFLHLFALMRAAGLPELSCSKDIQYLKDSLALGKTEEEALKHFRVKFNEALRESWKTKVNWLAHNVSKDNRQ
T1 sequence (P27986 whole entry partner): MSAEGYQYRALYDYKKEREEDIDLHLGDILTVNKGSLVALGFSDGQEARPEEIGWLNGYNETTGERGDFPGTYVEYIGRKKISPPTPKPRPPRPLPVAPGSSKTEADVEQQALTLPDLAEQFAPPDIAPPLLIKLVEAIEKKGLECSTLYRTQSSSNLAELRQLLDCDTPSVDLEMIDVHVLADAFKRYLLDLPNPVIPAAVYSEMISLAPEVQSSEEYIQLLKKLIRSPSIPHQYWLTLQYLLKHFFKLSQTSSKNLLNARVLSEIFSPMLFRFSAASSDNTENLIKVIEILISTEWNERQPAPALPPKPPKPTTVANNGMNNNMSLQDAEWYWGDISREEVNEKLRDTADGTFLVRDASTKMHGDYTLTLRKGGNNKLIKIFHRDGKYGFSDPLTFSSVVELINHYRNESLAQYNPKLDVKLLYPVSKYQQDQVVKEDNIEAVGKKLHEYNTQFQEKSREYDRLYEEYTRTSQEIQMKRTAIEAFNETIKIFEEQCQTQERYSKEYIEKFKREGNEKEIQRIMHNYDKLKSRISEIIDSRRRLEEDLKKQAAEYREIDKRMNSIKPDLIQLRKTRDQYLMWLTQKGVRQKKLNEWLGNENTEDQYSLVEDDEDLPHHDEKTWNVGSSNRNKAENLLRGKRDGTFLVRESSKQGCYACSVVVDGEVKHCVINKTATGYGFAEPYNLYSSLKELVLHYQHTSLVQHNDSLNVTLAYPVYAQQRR
T2 sequence (P42336 whole entry): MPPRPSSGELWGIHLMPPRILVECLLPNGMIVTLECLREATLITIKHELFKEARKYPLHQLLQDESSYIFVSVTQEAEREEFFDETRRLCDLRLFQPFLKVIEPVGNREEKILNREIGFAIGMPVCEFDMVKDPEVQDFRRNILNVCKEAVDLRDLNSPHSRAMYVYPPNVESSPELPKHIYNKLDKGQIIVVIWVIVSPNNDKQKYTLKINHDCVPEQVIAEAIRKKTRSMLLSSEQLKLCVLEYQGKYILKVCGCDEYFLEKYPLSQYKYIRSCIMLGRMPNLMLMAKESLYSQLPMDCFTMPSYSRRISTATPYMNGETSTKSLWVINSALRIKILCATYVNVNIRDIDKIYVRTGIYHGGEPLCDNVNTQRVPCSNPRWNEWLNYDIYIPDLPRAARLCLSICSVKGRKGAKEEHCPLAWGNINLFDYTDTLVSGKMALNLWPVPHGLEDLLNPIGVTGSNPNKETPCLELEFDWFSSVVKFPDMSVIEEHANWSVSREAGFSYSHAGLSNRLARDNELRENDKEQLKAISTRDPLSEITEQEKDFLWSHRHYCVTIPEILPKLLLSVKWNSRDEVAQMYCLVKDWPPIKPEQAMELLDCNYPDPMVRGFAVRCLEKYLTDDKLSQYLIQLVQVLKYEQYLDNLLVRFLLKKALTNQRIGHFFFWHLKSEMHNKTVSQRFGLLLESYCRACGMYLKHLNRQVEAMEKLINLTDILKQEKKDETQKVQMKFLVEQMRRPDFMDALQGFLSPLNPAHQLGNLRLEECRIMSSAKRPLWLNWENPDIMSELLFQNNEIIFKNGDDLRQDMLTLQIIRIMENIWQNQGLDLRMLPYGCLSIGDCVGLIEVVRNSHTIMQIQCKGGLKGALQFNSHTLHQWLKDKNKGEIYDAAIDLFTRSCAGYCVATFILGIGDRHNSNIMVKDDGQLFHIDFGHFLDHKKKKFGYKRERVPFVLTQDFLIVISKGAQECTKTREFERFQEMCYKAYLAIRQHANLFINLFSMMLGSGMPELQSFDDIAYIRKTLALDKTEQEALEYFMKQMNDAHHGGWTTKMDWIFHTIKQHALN
T2 sequence (P27986 whole entry partner): as the sequence (P27986 whole entry partner) above

SMILES	IC50 (PI3K delta (p110δ)) [nM]	IC50 (PI3K alpha (p110α)) [nM]	α/δ ratio (PI3K delta (p110δ))
FC(F)c1nc2ccccc2n1-c1nc(N[C@@H]2CCc3ccccc32)nc(N2CCOCC2)n1 [Compound A6, (R)-4-(2-(difluoromethyl)-1H-benzo[d]imidazol-1-yl)-N-(2,3-dihydro-1H-inden-1-yl)-6-morpholino-1,3,5-triazin-2-amine]	200 to 500	> 500	C′ (C′ represents a ratio of greater than 2 but less than 4)
COc1ccc2c(c1)CCC2Nc1nc(N2CCOCC2)nc(-n2c(C(F)F)nc3ccccc32)n1 (stereo not drawn) [Compound A9, 4-(2-(difluoromethyl)-1H-benzo[d]imidazol-1-yl)-N-(5-methoxy-2,3-dihydro-1H-inden-1-yl)-6-morpholino-1,3,5-triazin-2-amine]	200 to 500	> 500	C′ (C′ represents a ratio of greater than 2 but less than 4)
FC(F)c1nc2ccccc2n1-c1nc(N[C@H]2CCc3ccccc32)nc(N2CCOCC2)n1 [Compound A5, (S)-4-(2-(difluoromethyl)-1H-benzo[d]imidazol-1-yl)-N-(2,3-dihydro-1H-inden-1-yl)-6-morpholino-1,3,5-triazin-2-amine]	100 to 200	> 500	A′ (A′ represents a ratio of greater than 8)
COc1ccc2c(c1)C(Nc1nc(N3CCOCC3)nc(-n3c(C(F)F)nc4ccccc43)n1)CC2 (stereo not drawn) [Compound A10, 4-(2-(difluoromethyl)-1H-benzo[d]imidazol-1-yl)-N-(6-methoxy-2,3-dihydro-1H-inden-1-yl)-6-morpholino-1,3,5-triazin-2-amine]	200 to 500	> 500	C′ (C′ represents a ratio of greater than 2 but less than 4)
FC(F)c1nc2ccccc2n1-c1nc(NC2CCc3ccc(Cl)cc32)nc(N2CCOCC2)n1 (stereo not drawn) [Compound A8, N-(6-chloro-2,3-dihydro-1H-inden-1-yl)-4-(2-(difluoromethyl)-1H-benzo[d]imidazol-1-yl)-6-morpholino-1,3,5-triazin-2-amine]	200 to 500	> 500	A′ (A′ represents a ratio of greater than 8)
FC(F)c1nc2ccccc2n1-c1nc(NC2CCc3cc(Cl)ccc32)nc(N2CCOCC2)n1 (stereo not drawn) [Compound A7, N-(5-chloro-2,3-dihydro-1H-inden-1-yl)-4-(2-(difluoromethyl)-1H-benzo[d]imidazol-1-yl)-6-morpholino-1,3,5-triazin-2-amine]	> 500	> 500	A′ (A′ represents a ratio of greater than 8)
FC(F)c1nc2ccccc2n1-c1nc(NCc2ccccc2)nc(N2CCOCC2)n1 [Ref. 1, N-benzyl-4-(2-(difluoromethyl)-1H-benzo[d]imidazol-1-yl)-6-morpholino-1,3,5-triazin-2-amine, reference compound]	100 to 200	100 to 200	D′ (D′ represents a ratio of no greater than 2)

The next lines start with results.

IC50 (PI3K delta (p110δ)) [nM]	IC50 (PI3K alpha (p110α)) [nM]	SMILES	α/δ ratio (PI3K delta (p110δ))
≤ 100	> 500	FC(F)c1nc2ccccc2n1-c1nc(N[C@H]2CCCc3ccccc32)nc(N2CCOCC2)n1 [Compound A2, (S)-4-(2-(difluoromethyl)-1H-benzo[d]imidazol-1-yl)-6-morpholino-N-(1,2,3,4-tetrahydronaphthalen-1-yl)-1,3,5-triazin-2-amine]	A′ (A′ represents a ratio of greater than 8)
≤ 100	> 500	FC(F)c1nc2ccccc2n1-c1nc(NC2CCc3ccccc32)nc(N2CCOCC2)n1 (stereo not drawn) [Compound A4, 4-(2-(difluoromethyl)-1H-benzo[d]imidazol-1-yl)-N-(2,3-dihydro-1H-inden-1-yl)-6-morpholino-1,3,5-triazin-2-amine]	A′ (A′ represents a ratio of greater than 8)
> 500	> 500	FC(F)c1nc2ccccc2n1-c1nc(N[C@@H]2CCCc3ccccc32)nc(N2CCOCC2)n1 [Compound A3, (R)-4-(2-(difluoromethyl)-1H-benzo[d]imidazol-1-yl)-6-morpholino-N-(1,2,3,4-tetrahydronaphthalen-1-yl)-1,3,5-triazin-2-amine]	B′ (B′ represents a ratio of no less than 4 but no greater than 8)
100 to 200	> 500	FC(F)c1nc2ccccc2n1-c1nc(NC2CCCc3ccccc32)nc(N2CCOCC2)n1 (stereo not drawn) [Compound A1, 4-(2-(difluoromethyl)-1H-benzo[d]imidazol-1-yl)-6-morpholino-N-(1,2,3,4-tetrahydronaphthalen-1-yl)-1,3,5-triazin-2-amine]	A′ (A′ represents a ratio of greater than 8)
